Like-named read-outs stand apart in the source and are kept apart here.

One experiment deals with γδ T cells. The conditions noted are these: at best; Wilhelm et al., 2003; cited from earlier work.
The subject of experiment [1] is primary polyclonal human Vγ9Vδ2 T cells. The experiment in a line: Cytokine release assay: TNFα release from γδ T cells. It is filed as cell-based. How it is done:
Cells (primary polyclonal human Vγ9Vδ2 T cells which have been expanded in vitro and stored frozen at day 12-15 of expansion) are thawed and rinsed twice and centrifuged. Upon elimination of supernatant and resuspension of cells, the cells are incubated for 24 h at 37° C. in the presence of IL2 100 IU/ml (final concentration). The cells are washed and centrifuged, following which the supernatant is eliminated and the cells are resuspended and adjusted to the adequate final concentration. The cells are added to the wells of a 96-well plate.
To one row of wells is added a standard dilution series of […] (BrHPP). Compounds to be tested, in this case (E)-4-hydroxy-3-methyl-2-butenyl pyrophosphate (HDMAPP) and the N-HDMAPP compound of the invention are added to experimental wells, after several dilutions.
Full plates are incubated 24 hours at 37° C. for stimulation of the γδ cells with the test compound and reference compounds, in this case N-HDMAPP, BrHPP and HDMAPP, as further described below. After this time, 100 μl of culture supernatant is taken for TNFα dosage. Measurement of the released TNFα dosage is performed as described by the manufacturer's instruction in the TNFα enzyme immunoassay kit (ref. 11121, Immunotech—Beckman Coulter). OD at 405 nm is read, the OD being proportional to the concentration of released TNFα in the culture supernatant. The data are processed with the Excel software to compare concentration of test compound versus concentration of TNFα and for the calculation of the EC50 for each test compound.
The bioactivity of the compound N-HDMAPP was assessed using a TNFα release assay as described above. Compounds BrHPP and HDMAPP were included for purpose of comparison. […] As will be appreciated, any other suitable assays such as cell amplification may be used in assessing compounds.

The mark [2] stands for this setting: 24 hours stimulation at 37° C., TNFα enzyme immunoassay, relative screening test, read-out: in vitro EC50, TNFα release.

Regarding `NCCC(O)(P(=O)(O)O)P(=O)(O)O` [pamidronate], the “increase in γδ T cell count” value in the experiment on γδ T cells was not above 2 fold.

For `CC(O)(CBr)CCOP(=O)(O)OP(=O)(O)O` (stereo not drawn) [BrHPP, 3-(bromomethyl)-3-butanol-1-yl-diphosphate], the EC50 in experiment [1] (Homo sapiens, T-cell, prior assays, calibrated cells, read-out: EC50 in prior assays with calibrated cells using a BrHPP-standard composition) was approximately 15 nM.

Take `C/C(=C\COP(=O)(O)OP(=O)(O)O)CO` [HDMAPP, (E)-4-hydroxy-3-methyl-2-butenyl pyrophosphate]: in experiment [1] (setting [2]), the EC50 stood at 2.1 nM.

For “(E)-4-hydroxy-3-methylbut-2-enyl pyrophosphoramidate [N-HDMAPP]”, the EC50 in experiment [1] (setting [2]) came to 0.63 nM. Moreover, the “maximum TNFα release” value in experiment [1] (maximum level, FIG. 1) was “over 1800 pg/ml”. In experiment [1] (ratio of EC50, TNFα release), the “increased potency over the most potent compounds tested so far” value was 3-4.
